# Results: publication PMC8815882, “Screening the pandemic response box identified benzimidazole carbamates, Olorofim and ravuconazole as promising drug candidates for the treatment of eumycetoma” (PLoS Neglected Tropical Diseases, 2022)
# Read-outs that look alike come from different tables or passages of the source.
# Columns and labels:
# [1] = tested on: M. mycetomatis genome strain MM55; experiment: CLSI M38-A2 based in vitro susceptibility screening (XTT or resazurin), growth at fixed concentration; format: cell-based, Madurella mycetomatis
# [2] = tested on: M. pseudomycetomatis strain Mex2A; experiment: CLSI M38-A2 based in vitro susceptibility screening at 25 μM; format: cell-based, Madurella pseudomycetomatis; conditions: selected if >75% (resazurin) or >80% (XTT) fungal growth inhibited
# [3] = tested on: M. tropicana strain CBS206.47; experiment: as above; format: cell-based, Madurella tropicana; conditions: selected if >75% (resazurin) or >80% (XTT) fungal growth inhibited
# [4] = tested on: F. senegalensis strain CBS132257; experiment: as above; format: cell-based, Falciformispora senegalensis; conditions: selected if >75% (resazurin) or >80% (XTT) fungal growth inhibited
# [5] = tested on: Me. romeroi strain CBS128765; experiment: as above; format: cell-based, Medicopsis romeroi; conditions: selected if >75% (resazurin) or >80% (XTT) fungal growth inhibited
# M. mycetomatis MM55 = experiment: IC50 determination, 2-fold dilution series 16 to 0.03125 μM; format: cell-based, Madurella mycetomatis; conditions: for IC50 / IC90: Madurella mycetomatis
# [6] = tested on: ten different M. mycetomatis isolates; experiment: MIC / MIC50 determination (XTT) in ten M. mycetomatis isolates; format: cell-based, Madurella mycetomatis; conditions: Madurella mycetomatis
# [7] = tested on: M. mycetomatis isolate MM55; experiment: M. mycetomatis grain infection model in G. mellonella larvae, survival; format: in vivo, Galleria mellonella; set-up: In vivo efficacy, Larvae survival %: concentration or dose not given beside the values
# [8] = tested on: M. mycetomatis genome strain MM55; set-up: method as in PMID 29698504; conditions: parasitic DHODH inhibitors of the MMV Pathogen Box screened previously; cited from earlier work
# M. mycetomatis = experiment: Drug static or cidal determination; format: cell-based, Madurella mycetomatis
# Excerpt: Supplement pntd.0010159.s001.xlsx, sheet "Pandemic Box Master sheet" | column: Drug static or cidal
# [9] = Madurella mycetomatis, replicate A, read-out: Percentage survival at 25um, 25 um A
# [10] = Madurella mycetomatis, replicate B, read-out: Percentage survival at 25um, 25 uM B
# [11] = Madurella mycetomatis, replicate C, read-out: Percentage survival at 25um, 25 uM C
# [12] = MM55, Table 2, M. mycetomatis MM55, read-out: IC50
# [13] = MM55, replicate 1, read-out: IC50 1
# [14] = MM55, replicate 1, read-out: IC90 1
# [15] = MM55, replicate 2, read-out: IC50 2
# [16] = MM55, replicate 2, read-out: IC90 2
# [17] = MM55, replicate 3, read-out: IC50 3
# [18] = MM55, replicate 3, read-out: IC90 3
# [19] = median MIC over ten M. mycetomatis isolates, no asterisk, read-out: MIC50
# [20] = isolate CBS247.48, read-out: MIC CBS247.48
# [21] = isolate MM14, read-out: MIC MM14
# [22] = isolate MM45, read-out: MIC MM45
# [23] = isolate MM55, read-out: MIC MM55
# [24] = isolate ParijsAl1, read-out: MIC ParijsAl1
# [25] = isolate Peru72012, read-out: MIC Peru72012
compound,measurement,setting,value
"COC(=O)Nc1nc2ccc(Sc3ccccc3)cc2[nH]1 [MMV003143, Fenbendazole]",Inhibits growth of Madurella mycetomatis at 25 μM,"[1]; 25 μM, selected if >75% (resazurin) or >80% (XTT) fungal growth inhibited",inhibit the growth
same,activity at 25 µM,"[1]; Madurella mycetomatis, mean, read-out: Percentage survival at 25um, 25 uM mean",2.38%
same,activity at 25 µM,[1]; [9],-0.759%
same,activity at 25 µM,[1]; [10],3.53%
same,activity at 25 µM,[1]; [11],4.38%
same,activity at 100 µM,"[1]; Madurella mycetomatis, 100 uM, mean, read-out: Percentage survival at 100um, 100 uM mean",7.16%
same,activity at 100 µM,"[1]; Madurella mycetomatis, 100 uM, replicate (first column), read-out: Percentage survival at 100um, 100 uM A",0.376%
same,activity at 100 µM,"[1]; Madurella mycetomatis, 100 uM, replicate (second column), read-out: Percentage survival at 100um, 100 uM A",9.19%
same,activity at 100 µM,"[1]; Madurella mycetomatis, 100 uM, replicate (third column), read-out: Percentage survival at 100um, 100 uM A",11.9%
same,Inhibits growth of Madurella pseudomycetomatis at 25 μM,[2],inhibit the growth
same,Inhibits growth of Madurella tropicana at 25 μM,[3],inhibit the growth
same,Inhibits growth of Falciformispora senegalensis at 25 μM,[4],inhibit the growth
same,Inhibits growth of Medicopsis romeroi at 25 μM,[5],inhibit the growth
same,Drug static or cidal,M. mycetomatis MM55,Static
same,IC50,M. mycetomatis MM55; [12],2.66 µM
same,IC50,"M. mycetomatis MM55; MM55, Table 3, benzimidazole carbamates, M. mycetomatis, read-out: IC50",2.66 µM
same,IC50,"M. mycetomatis MM55; MM55, mean, read-out: IC50 mean",2.66 µM
same,IC90,"M. mycetomatis MM55; MM55, read-out: IC90 mean",9.09 µM
same,IC50,M. mycetomatis MM55; [13],2.58 µM
same,IC90,M. mycetomatis MM55; [14],17 µM
same,IC50,M. mycetomatis MM55; [15],2.52 µM
same,IC90,M. mycetomatis MM55; [16],4.6 µM
same,IC50,M. mycetomatis MM55; [17],2.88 µM
same,IC90,M. mycetomatis MM55; [18],5.68 µM
same,MIC50,"[6]; Table 3 and Fig 5, benzimidazole carbamates, M. mycetomatis, read-out: MIC50",0.5 µM
same,MIC50,[6]; [19],2 µM
same,MIC50,"[6]; over the isolates tested, read-out: MIC50 mean",0.5 µM
same,MIC,[6]; [20],0.5 µM
same,MIC,[6]; [21],0.5 µM
same,MIC,[6]; [22],0.5 µM
same,MIC,[6]; [23],0.5 µM
same,MIC,"[6]; isolate P1, read-out: MIC P1",0.5 µM
same,MIC,[6]; [24],0.5 µM
same,MIC,[6]; [25],0.5 µM
same,MIC,"[6]; isolate So1, read-out: MIC So1",2 µM
same,MIC,"[6]; isolate i1, read-out: MIC i1",0.25 µM
same,MIC,"[6]; isolate i11, read-out: MIC i11",1 µM
same,Larvae survival rate on day ten,"[7]; 20 μM per larvae at 4, 28, 52 h after infection, day ten",24.4%
same,Effect on larvae survival Day 4 (words),"[7]; 20 μM per larvae, vs infected control, day four",Increase survival
same,Effect on larvae survival Day 10 (words),"[7]; 20 μM per larvae, vs infected control, day ten",Increase survival
same,Effect on larvae survival Day 10 (words),"[7]; 20 μM per larvae, vs infected control, day ten, listed as fenbendazole",able to increase larvae survival
same,"In vivo efficacy, Enhanced survival compared to control?",[7]; in vivo,yes *
same,"In vivo efficacy, Larvae survival %",[7]; in vivo,24.4%
Cc1cc(Nc2ccc(C(F)(F)F)cc2)n2ccnc2n1 [MMV011229],In vitro activity against M. mycetomatis,[8],no activity
Oc1c(C(Nc2nc3ccccc3s2)c2ccc(OC(F)F)cc2)ccc2cccnc12 (centres unmarked) [MMV019724],activity at 25 µM,"[1]; Madurella mycetomatis, mean of replicates, read-out: Percentage survival at 25um, 25 uM mean",9.22%
same,activity at 25 µM,[1]; [9],14.5%
same,activity at 25 µM,[1]; [10],1.51%
same,activity at 25 µM,[1]; [11],11.7%
same,activity at 100 µM,"[1]; Madurella mycetomatis, 100 uM, mean of replicates, read-out: Percentage survival at 100um, 100 uM mean",16.7%
same,activity at 100 µM,"[1]; Madurella mycetomatis, 100 uM, replicate 1, read-out: Percentage survival at 100um, 100 uM A (first replicate column)",15.6%
same,Percent fungal survival at 100 µM,"[1]; Madurella mycetomatis, 100 uM, replicate 2, read-out: Percentage survival at 100um, 100 uM A (second replicate column)",13.5%
same,activity at 100 µM,"[1]; Madurella mycetomatis, 100 uM, replicate 3, read-out: Percentage survival at 100um, 100 uM A (third replicate column)",20.9%
same,IC50,M. mycetomatis MM55; [12],4.87 µM
same,IC50,"M. mycetomatis MM55; MM55, mean of replicates, read-out: IC50 mean",4.87 µM
same,IC90,"M. mycetomatis MM55; MM55, mean of replicates, read-out: IC90 mean",18.2 µM
same,IC50,M. mycetomatis MM55; [13],2.68 µM
same,IC90,M. mycetomatis MM55; [14],14 µM
same,IC50,M. mycetomatis MM55; [15],2.92 µM
same,IC90,M. mycetomatis MM55; [16],19.2 µM
same,IC50,M. mycetomatis MM55; [17],9 µM
same,IC90,M. mycetomatis MM55; [18],21.4 µM
same,MIC50,[6]; [19],4 µM
same,MIC,[6]; [20],8 µM
same,MIC,[6]; [21],> 16 µM
same,MIC,[6]; [22],> 16 µM
same,MIC,[6]; [23],8 µM
same,MIC,"[6]; isolate P1, read-out: MIC P1",4 µM
same,MIC,[6]; [24],2 µM
same,MIC,[6]; [25],2 µM
same,MIC,"[6]; isolate So1, read-out: MIC So1",4 µM
same,MIC,"[6]; isolate i1, read-out: MIC i1",2 µM
same,MIC,"[6]; isolate i11, read-out: MIC i11",16 µM
same,MIC50,"[6]; over ten M. mycetomatis isolates, read-out: MIC50 mean",4 µM
same,"In vivo efficacy, Larvae survival %",[7]; G. mellonella larvae infected with M. mycetomatis,13.3%
same,"In vivo efficacy, Enhanced survival compared to control?",[7]; in vivo,no
same,Drug static or cidal,M. mycetomatis,Static
Cc1ccc(NC(=O)c2cc(S(=O)(=O)NC(C)(C)C)ccc2C)nc1 [MMV020289],In vitro activity against M. mycetomatis,[8],no activity
